Measured values: patent publication US20050112573A1, “Method of detecting toxic substance” (priority 2001, published 2005)

System: yeast genes (level of expressed mRNA)
Experiment: DNA chip analysis of expressed mRNA of yeast genes after 2 h culture with a toxic chemical substance
Type: cell-based, Saccharomyces cerevisiae S288C
How it was run: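 Values are treated-to-control fluorescence ratios from a whole-yeast-genome DNA chip (65° C, over 12 h hybridization) using Cy3/Cy5-labelled cDNA from mRNA. Log-phase S288C cells in YPD at 25° C were exposed 2 h to a toxicant at sublethal, growth-inhibiting concentration.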

SMILES: Oc1cc(Cl)c(Cl)cc1Cl [(6), 2,4,5-trichlorophenol]
- The level of expressed mRNA in the presence of chemical substance/The level of expressed mRNA in the absence of chemical substance (yeast gene YKL013C): 1.9
- The level of expressed mRNA in the presence of chemical substance/The level of expressed mRNA in the absence of chemical substance (yeast gene YKL039W): 4.9
- The level of expressed mRNA in the presence of chemical substance/The level of expressed mRNA in the absence of chemical substance (yeast gene YKL041W): 2.2
- The level of expressed mRNA in the presence of chemical substance/The level of expressed mRNA in the absence of chemical substance (yeast gene YKL096W): 0.6
- The level of expressed mRNA in the presence of chemical substance/The level of expressed mRNA in the absence of chemical substance (yeast gene YKL165C): 0.6
- The level of expressed mRNA in the presence of chemical substance/The level of expressed mRNA in the absence of chemical substance (yeast gene YKL193C): 0.9
- The level of expressed mRNA in the presence of chemical substance/The level of expressed mRNA in the absence of chemical substance (yeast gene YLR120C): 1.9
- The level of expressed mRNA in the presence of chemical substance/The level of expressed mRNA in the absence of chemical substance (yeast gene YLR136C): 1.7
- The level of expressed mRNA in the presence of chemical substance/The level of expressed mRNA in the absence of chemical substance (yeast gene YLR178C): 4.2
- The level of expressed mRNA in the presence of chemical substance/The level of expressed mRNA in the absence of chemical substance (yeast gene YLR250W): 1.1
- The level of expressed mRNA in the presence of chemical substance/The level of expressed mRNA in the absence of chemical substance (yeast gene YLR327C): 5.1
- The level of expressed mRNA in the presence of chemical substance/The level of expressed mRNA in the absence of chemical substance (yeast gene YLR356W): 3.4
- The level of expressed mRNA in the presence of chemical substance/The level of expressed mRNA in the absence of chemical substance (yeast gene YLR362W): 0.8
- The level of expressed mRNA in the presence of chemical substance/The level of expressed mRNA in the absence of chemical substance (yeast gene YLR391W): 1.5
- The level of expressed mRNA in the presence of chemical substance/The level of expressed mRNA in the absence of chemical substance (yeast gene YLR429W): 0.8
- The level of expressed mRNA in the presence of chemical substance/The level of expressed mRNA in the absence of chemical substance (yeast gene YMR004W): 0.5
- The level of expressed mRNA in the presence of chemical substance/The level of expressed mRNA in the absence of chemical substance (yeast gene YMR094W): 0.5
- The level of expressed mRNA in the presence of chemical substance/The level of expressed mRNA in the absence of chemical substance (yeast gene YMR104C): 1.9
- The level of expressed mRNA in the presence of chemical substance/The level of expressed mRNA in the absence of chemical substance (yeast gene YMR219W): 0.8
- The level of expressed mRNA in the presence of chemical substance/The level of expressed mRNA in the absence of chemical substance (yeast gene YMR226C): 2.6
- The level of expressed mRNA in the presence of chemical substance/The level of expressed mRNA in the absence of chemical substance (yeast gene YMR275C): 1.4
- The level of expressed mRNA in the presence of chemical substance/The level of expressed mRNA in the absence of chemical substance (yeast gene YMR276W): 0.8
- The level of expressed mRNA in the presence of chemical substance/The level of expressed mRNA in the absence of chemical substance (yeast gene YMR314W): 1.3
- The level of expressed mRNA in the presence of chemical substance/The level of expressed mRNA in the absence of chemical substance (yeast gene YNL006W): 1.0
- The level of expressed mRNA in the presence of chemical substance/The level of expressed mRNA in the absence of chemical substance (yeast gene YNL007C): 0.6
- The level of expressed mRNA in the presence of chemical substance/The level of expressed mRNA in the absence of chemical substance (yeast gene YNL093W): 1.6
- The level of expressed mRNA in the presence of chemical substance/The level of expressed mRNA in the absence of chemical substance (yeast gene YNL333W): 1.5
- The level of expressed mRNA in the presence of chemical substance/The level of expressed mRNA in the absence of chemical substance (yeast gene YNR010W): 1.3
- The level of expressed mRNA in the presence of chemical substance/The level of expressed mRNA in the absence of chemical substance (yeast gene YNR069C): 1.7
- The level of expressed mRNA in the presence of chemical substance/The level of expressed mRNA in the absence of chemical substance (yeast gene YOL013C): 1.1
- The level of expressed mRNA in the presence of chemical substance/The level of expressed mRNA in the absence of chemical substance (yeast gene YOL164W): 1.2
- The level of expressed mRNA in the presence of chemical substance/The level of expressed mRNA in the absence of chemical substance (yeast gene YOR036W): 1.7
- The level of expressed mRNA in the presence of chemical substance/The level of expressed mRNA in the absence of chemical substance (yeast gene YOR117W): 1.1
- The level of expressed mRNA in the presence of chemical substance/The level of expressed mRNA in the absence of chemical substance (yeast gene YOR124C): 0.9
- The level of expressed mRNA in the presence of chemical substance/The level of expressed mRNA in the absence of chemical substance (yeast gene YOR132W): 1.6
- The level of expressed mRNA in the presence of chemical substance/The level of expressed mRNA in the absence of chemical substance (yeast gene YOR157C): 1.2
- The level of expressed mRNA in the presence of chemical substance/The level of expressed mRNA in the absence of chemical substance (yeast gene YOR181W): 0.9
- The level of expressed mRNA in the presence of chemical substance/The level of expressed mRNA in the absence of chemical substance (yeast gene YOR185C): 3.0
- The level of expressed mRNA in the presence of chemical substance/The level of expressed mRNA in the absence of chemical substance (yeast gene YOR198C): 0.9
- The level of expressed mRNA in the presence of chemical substance/The level of expressed mRNA in the absence of chemical substance (yeast gene YOR259C): 0.8
- The level of expressed mRNA in the presence of chemical substance/The level of expressed mRNA in the absence of chemical substance (yeast gene YOR261C): 1.4
- The level of expressed mRNA in the presence of chemical substance/The level of expressed mRNA in the absence of chemical substance (yeast gene YOR288C): 1.0
- The level of expressed mRNA in the presence of chemical substance/The level of expressed mRNA in the absence of chemical substance (yeast gene YOR355W): 1.6
- The level of expressed mRNA in the presence of chemical substance/The level of expressed mRNA in the absence of chemical substance (yeast gene YOR383C): 6.8
- The level of expressed mRNA in the presence of chemical substance/The level of expressed mRNA in the absence of chemical substance (yeast gene YPL089C): 0.8
- The level of expressed mRNA in the presence of chemical substance/The level of expressed mRNA in the absence of chemical substance (yeast gene YPL109C): 1.2
- The level of expressed mRNA in the presence of chemical substance/The level of expressed mRNA in the absence of chemical substance (yeast gene YPL149W): 0.9
- The level of expressed mRNA in the presence of chemical substance/The level of expressed mRNA in the absence of chemical substance (yeast gene YPL154C): 3.5
- The level of expressed mRNA in the presence of chemical substance/The level of expressed mRNA in the absence of chemical substance (yeast gene YPR103W): 1.2
- The level of expressed mRNA in the presence of chemical substance/The level of expressed mRNA in the absence of chemical substance (yeast gene YPR108W): 1.5
